Where two headings read alike, the source gives them in different places.
Assays:
mCRTH2 [1] = molecular target: T1, mCRTH2 (Mus musculus, UniProt Q9Z2J6); assay: mCRTH2 whole cell competition binding ([3H]PGD2); conditions: displacement of [3H]PGD2, mCRTH2-HEK cells
T1 construct: expressed in transfected cells
T1 sequence (Q9Z2J6 1-382): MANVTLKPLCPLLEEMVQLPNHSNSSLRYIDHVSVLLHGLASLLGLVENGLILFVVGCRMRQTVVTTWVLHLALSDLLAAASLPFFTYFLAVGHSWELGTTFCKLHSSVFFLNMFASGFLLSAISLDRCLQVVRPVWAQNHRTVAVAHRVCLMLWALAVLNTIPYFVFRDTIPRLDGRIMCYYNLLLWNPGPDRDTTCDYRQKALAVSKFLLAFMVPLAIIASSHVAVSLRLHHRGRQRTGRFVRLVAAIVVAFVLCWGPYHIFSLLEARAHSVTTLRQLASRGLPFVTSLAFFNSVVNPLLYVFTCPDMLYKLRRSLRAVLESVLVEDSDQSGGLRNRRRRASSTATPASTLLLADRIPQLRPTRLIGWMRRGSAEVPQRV
Source text: (§1) The coding sequence of mCRTH2 (genbank accession no. AF054507) was amplified by PCR from mouse hippocampus cDNA and inserted into the pcDNA3.1(+) expression vector (invitrogen). A HEK293 cell line, stably expressing mCRTH2 (hereafter referred to as mCRTH2-HEK cells) was generated under G418 (Gibco #11811) selection and used as described below in whole cell binding and functional inositol phosphate accumulation assays. The coding sequence of mTP (genbank accession no. D10849) was amplified by PCR from mouse spleen cDNA and inserted into pcDNA3.1(+). HEK293 cells were transiently transfected with mTP as described and assayed after 48 hr as outlined below.
Binding assays were performed essentially as described previously. In brief, mCRTH2-HEK cells or HEK cells transiently transfected with mTP were seeded into white 96 well plates (Costar #3917) at a density of 30.000 cells/well. About 18–24 hr later, whole cell competition binding experiments were performed using 0.8 nM [^3H]PGD2 (Amersham #TRK734, 166 Ci/mmol) or 0.7 nM [^3H]SQ29548 (PerkinElmer #NET-936, 48.2 Ci/mmol), for mCRTH2 and mTP respectively. Total and nonspecific binding were determined in the absence and presence of 10 μM PGD2 for mCRTH2 and 10 μM U46619 for mTXA2 receptors.
(§2) was performed using the Prism 3.0 software (GraphPad Software, San Diego) as described previously with the following exceptions: Binding data from competition binding assays were normalized to percent of specific binding of [^3H]PGD2 or [^3H]SQ29548 and the Ki was then determined using the Cheng-Prusoff equation Ki = IC50/(1+L/Kd), where L is the concentration of radioactive ligand and Kd is its dissociation constant. For Schild analysis, global fitting using the Gaddum/Schild competitive interaction model was applied after the functional concentration-response curves for the agonists PGD2 or U46619 in the absence or presence of various antagonist concentrations were normalized to percent of the maximal response obtained by agonist alone.

mCRTH2 [2] = molecular target: T1, mCRTH2; assay: Inositol phosphate accumulation assay, mCRTH2-HEK cells (Schild analysis vs PGD2); type: cell-based; conditions: PGD2 concentration-response, InsP
Source text: as §1
mCRTH2-HEK or HEK cells transiently transfected with mTP were seeded at a density of 30.000 cells/well in poly-D-lysine coated 96-well tissue culture plates and labeled by overnight incubation in medium containing 5 μCi myo- [2-^3H]-inositol (TRK911, Amersham Biosciences). After washing, cells were stimulated with the respective ligands in the presence of 5 mM LiCl (HBSS, GIBCO cat. 14025–050, 45 min, 37°C) and the inositol phosphate fraction was quantified using a scintillation proximity assay (SPA) as described previously. To facilitate inositol phosphate generation by the Gi-selective CRTH2 receptor, mCRTH2-HEK cells were transiently transfected with a promiscuous Gα protein [29].
as §2

[3] = system: OVA-challenged BALB/c mice; assay: Mouse model of allergic asthma (OVA), lung tissue eosinophils and mucus cells histology; type: in vivo; conditions: 5 mg/kg orally twice daily days 14 and 15, OVA-challenged mice, 24 hr after last challenge; p < 0.05 vs vehicle
Procedure: Female BALB/c mice about 6 weeks of age (MoB A/S; Ry, Denmark) were kept in well-controlled animal housing facilities and fed ad libitum. The study was approved by the Regional Ethics Committee in Malmoe-Lund, Sweden. All groups of mice (n = 10 in each group) were immunized by intraperitoneal (i.p) injections of ovalbumin (OVA, 10 μg per injection; grade V, Sigma, St Louis, Mo) absorbed to alum adjuvant (Al(OH)3; Sigma) at day 0 as described previously. […] Control animals received saline challenge. Animals were sacrificed 24 hr after the last allergen challenge by pentobarbital i.p followed by bronchoalveolar lavage (BAL) and lung tissue sampling. In preliminary studies it was ascertained that daily allergen challenges for only a few days sufficed to produce a significant airway tissue eosinophilia as well as goblet cell hyperplasia. On days 14 and 15 mice were treated twice daily with TM30089 and ramatroban (BAY3405), 5 mg/kg orally. […] Drugs were administered 30 minutes before and 4 hr after each challenge. The dose of ramatroban was selected in accord with previous reports. Furthermore, ramatroban and TM30089 differ chemically merely by the move of one carbon atom from the carboxyl side chain in ramatroban to the sulfonamide nitrogen in TM30089 - thus they have the same molecular weight and other important structural features in common - so it is highly reasonable to assume they will have very similar PK properties. […] Eosinophils were detected by histochemical visualization of cyanide-resistant eosinophil peroxidase (EPO) activity. In brief, 5 μm cryo sections were incubated for 8 min at room temperature in PBS buffer (pH 7.4) supplemented with 3.3-diaminobenzidine tetrahydrochloride (60 mg/100 ml; Sigma), 30% H2O2 (0.3 ml/100 ml), and NaCN (120 mg/100 ml). Slides were then rinsed in tap water and mounted in […] medium (Merck, Darmstadt, Germany). […] Although the focus in this study was on tissue pathology BAL was also carried out (see below). Histology analyses were performed and quantified in a blinded manner. To compare histological data, the non-parametric Kruskal-Wallis test and followed by Connover's test was applied using Analyze ItTM (Analyse-it software Ltd., Leeds, UK). Data are expressed as mean ± SEM. A value of p < 0.05 was considered statistically significant.

| Structure (SMILES) | pKi mCRTH2 (mCRTH2 [1]) | Ki (mCRTH2 [1]; printed in brackets after pKi, read-out: Ki mCRTH2) [nM] | Schild slope mCRTH2 (mCRTH2 [2]) | pA2 mCRTH2 (mCRTH2 [2]) | allergen challenge-induced mucus cell hyperplasia [3] | allergen challenge-induced peribronchial lung tissue eosinophilia [3] | Ki (mCRTH2 [1]; read-out: pKi mCRTH2 (converted)) [nM] | Kb (mCRTH2 [2]; read-out: pA2 mCRTH2 (converted)) [nM] |
| --- | --- | --- | --- | --- | --- | --- | --- | --- |
| CN(C1CCc2c(c3ccccc3n2CC(=O)O)C1)S(=O)(=O)c1ccc(F)cc1 (centres unmarked) [TM30089] | 8.96 ± 0.05 | 1.1 | 1.45 ± 0.08 | 9.15 ± 0.11 | significantly diminished | significantly diminished |  |  |
| O=C(O)CCn1c2c(c3ccccc31)C[C@H](NS(=O)(=O)c1ccc(F)cc1)CC2 [ramatroban, reference compound] |  |  | 0.94 ± 0.05 |  | significantly diminished | significantly diminished | 4.17 | 8.32 |

From paper PMC1810525, “Antagonism of the prostaglandin D2 receptor CRTH2 attenuates asthma pathology in mouse eosinophilic airway inflammation” (Respiratory Research, 2007)
